Structures can show the parent of a compound that is named as a salt. Square brackets hold non-standard residues; d marks the D form. Peptide text beside a SMILES is read from it. d2Nal = N[C@H](Cc1ccc2ccccc2c1)C(=O)O
What was measured:
[1] = In vitro lung delivery fraction test with multi-stage cascade impactor (Andersen sampler, Jethaler); format: physicochemical; details: 28.3 L/min; for Residual and Distributed Fractions of Active Ingredient: Capsule / Residual and Distributed Fractions of Active Ingredient: Inhaler device / Residual and Distributed Fractions of Active Ingredient: Stage 0 / Residual and Distributed Fractions of Active Ingredient: Stage 1 / Residual and Distributed Fractions of Active Ingredient: Stages 2–7 / Residual and Distributed Fractions of Active Ingredient: Throat / Capsule, residual active ingredient / Inhaler device, residual active ingredient / Stage 0, distribution of active ingredient / Stage 1, distribution of active ingredient / Stages 2–7, lung delivery fraction / Throat, distribution of active ingredient: S-36496 10%
Experimental: Capsulated preparations (The Japanese Pharmacopeia No. 2 HPMC capsules: manufactured by Shionogi Qualicaps Co., Ltd.) which were filled with about 40 mg each of three dry powder inhalations were prepared and mounted on an inhaler device (Jethaler; Unisia Jecs Corp.) The Jethaler was then attached to the mouthpiece of a cascade impactor (Andersen sampler Model AN-200) and inspired at a flow rate of 28.3 L/min., thereby dispersing the micronized medication in the capsule and measuring the residual active ingredient in the capsule and in the inhaler device as well as the distribution of the active ingredient at each stage with liquid chromatography. It was confirmed that in the in vitro test with cascade impactor, the lung delivery fraction at stages 2–7 corresponding to the respiring fraction differed substantially depending on the different carrier particles.
(§1) Capsulated preparations (The Japanese Pharmacopeia No. 2HPMC capsules: manufactured by Shionogi Qualicaps Co., Ltd.), which were filled with about 40 mg each of three dry powder inhalations, were prepared and mounted on an inhaler device (Jethaler®; Unisia Jecs Corp.). The Jethaler® brand device was then attached to the mouthpiece of a cascade impactor (Andersen sampler; Model AN-200) and inspired at a flow rate of 28.3 L/min., thereby dispersing the dry powder inhalation in the capsule and measuring the residual active ingredient in the capsule and in the inhaler device as well as the distribution of the active ingredient at each stage with liquid chromatography.
(§2) A capsulated preparation (The Japanese Pharmacopeia No. 2HPMC capsules: manufactured by Shionogi Qualicaps Co., Ltd.) which was filled with about 40 mg of the prepared dry powder inhalations was prepared and mounted on an inhaler device (Jethaler; Unisia Jecs Corp.) The Jethaler was then attached to the mouthpiece of a cascade impactor (Andersen sampler; Model AN-200) and inspired at a flow rate of 28.3 L/min., thereby dispersing the dry powder inhalation in the capsule and measuring the residual active ingredient in the capsule and in the inhaler device as well as the distribution of the active ingredient at each stage with liquid chromatography.
as §1, with “A capsulated preparation (The” for “Capsulated preparations (The”, “which was” for “which were”, “mg” for “mg each”, “chromatography. […]” for “chromatography.”
as §2, with “2 HPMC” for “2HPMC”, “Ltd.)” for “Ltd.) which was”, “inhalation” for “inhalations”

[2] = Dispersibility of active ingredient from carrier particles, laser diffraction particle size analyzer; format: physicochemical; details: Example 17: S-36496 10%, micronized lactose 1%, carrier trehalose 89%, particles of 10 μm or less
[3] = Example 11: Pralmorelin dihydrochloride 5.0%, carrier erythritol 93.5%, micronized lactose 1.5%
[4] = Example 10: S-36496 3.2%, carrier lactose 95.8%, micronized lactose 1.0%
[5] = Example 17: S-36496 10%, micronized lactose 1%, carrier trehalose 89%, Vertical Granulator 5 min
[6] = micronized lactose 1%, carrier trehalose 89% of particle size 48.6 μm
[7] = micronized lactose 1%, carrier trehalose 89% of particle size 81.0 μm
[8] = micronized lactose 1%, carrier trehalose 89% of particle size 97.9 μm
[9] = micronized lactose 1%, erythritol carrier 89% of mean particle diameter 53.8 μm
[10] = micronized lactose 1%, erythritol carrier 89% of mean particle diameter 81.6 μm
[11] = micronized lactose 1%, erythritol carrier 89% of mean particle diameter 155.9 μm

Question: What does the source list for `C[C@H](NC(=O)[C@@H](Cc1ccc2ccccc2c1)NC(=O)[C@@H](C)N)C(=O)N[C@@H](Cc1c[nH]c2ccccc12)C(=O)N[C@H](Cc1ccccc1)C(=O)N[C@@H](CCCCN)C(N)=O` [Pralmorelin dihydrochloride, reference compound] (H-[dA][d2Nal]AW[dF]K-NH2)?
Answer: Residual and Distributed Fractions of Active Ingredient (%): Capsule [1, 3]: 3.6%; Residual and Distributed Fractions of Active Ingredient (%): Inhaler device [1, 3]: 11.5%; Residual and Distributed Fractions of Active Ingredient (%): Stage 0 [1, 3]: 7.7%; Residual and Distributed Fractions of Active Ingredient (%): Stage 1 [1, 3]: 26.6%

Question: For `CC(C)c1csc(COc2cccc(CN(CCCCNS(=O)(=O)c3ccc(Cl)cc3)S(=O)(=O)c3ccccc3C(=O)O)c2)n1` [Example S-36496, 2-{N-[4-(4-chlorobenzenesulfonylamino)butyl]-N-{3-[(4-isopropyl-2-thiazoyl)methoxy]benzyl}}sulfamoylbenzenolic acid], which “Dispersibility of drugs (active ingredient) (%)” value ([2]; Spray Pressure 0.2 kg/cm^2) is on record?
Answer: The value was 8.3%.

Question: And the “Dispersibility of drugs (active ingredient) (%)” value ([2]; Spray Pressure 0.3 kg/cm^2)?
Answer: Its value is 9.4%.

Question: And the “Residual and Distributed Fractions of Active Ingredient (%): Capsule” value [1, 4]?
Answer: Its value is 8.2%.

Question: What about the “Residual and Distributed Fractions of Active Ingredient (%): Inhaler device” value [1, 4] of the same compound?
Answer: Its value is 19.3%.

Question: And the “Residual and Distributed Fractions of Active Ingredient (%): Stage 0” value [1, 4]?
Answer: Its value is 19.5%.

Question: And the “Residual and Distributed Fractions of Active Ingredient (%): Stage 1” value [1, 4]?
Answer: Its value is 9.1%.

Question: And the “Residual and Distributed Fractions of Active Ingredient (%): Stages 2–7” value [1, 4]?
Answer: The value was 18.2%.

Question: What about the “Residual and Distributed Fractions of Active Ingredient (%): Throat” value [1, 4] of the same compound?
Answer: The value was 25.7%.

Question: And the “Residual and Distributed Fractions of Active Ingredient (%): Capsule” value [1, 5]?
Answer: Its value is 7.3%.

Question: What about the “Residual and Distributed Fractions of Active Ingredient (%): Inhaler device” value [1, 5] of the same compound?
Answer: The value was 19.4%.

Question: What about the “Residual and Distributed Fractions of Active Ingredient (%): Stage 0” value [1, 5] of the same compound?
Answer: The value was 22.3%.

Question: What about the “Residual and Distributed Fractions of Active Ingredient (%): Stage 1” value [1, 5] of the same compound?
Answer: Its value is 5.8%.

Question: And the “Residual and Distributed Fractions of Active Ingredient (%): Stages 2–7” value [1, 5]?
Answer: Its value is 30.2%.

Question: And the “Residual and Distributed Fractions of Active Ingredient (%): Throat” value [1, 5]?
Answer: Its value is 15.0%.

Question: And the “Residual and Distributed Fractions of Active Ingredient: Capsule” value [1, 6]?
Answer: The value was 9.0%.

Question: And the “Residual and Distributed Fractions of Active Ingredient: Inhaler device” value [1, 6]?
Answer: Its value is 24.2%.

Question: And the “Residual and Distributed Fractions of Active Ingredient: Stage 0” value [1, 6]?
Answer: Its value is 24.7%.

Question: What about the “Residual and Distributed Fractions of Active Ingredient: Stage 1” value [1, 6] of the same compound?
Answer: Its value is 2.9%.

Question: And the “Residual and Distributed Fractions of Active Ingredient: Stages 2–7” value [1, 6]?
Answer: Its value is 6.4%.

Question: And the “Residual and Distributed Fractions of Active Ingredient: Throat” value [1, 6]?
Answer: Its value is 32.8%.

Question: What about the “Residual and Distributed Fractions of Active Ingredient: Capsule” value [1, 7] of the same compound?
Answer: The value was 4.9%.

Question: What about the “Residual and Distributed Fractions of Active Ingredient: Inhaler device” value [1, 7] of the same compound?
Answer: Its value is 19.1%.

Question: And the “Residual and Distributed Fractions of Active Ingredient: Stage 0” value [1, 7]?
Answer: The value was 18.4%.

Question: What about the “Residual and Distributed Fractions of Active Ingredient: Stage 1” value [1, 7] of the same compound?
Answer: The value was 2.0%.

Question: What about the “Residual and Distributed Fractions of Active Ingredient: Stages 2–7” value [1, 7] of the same compound?
Answer: The value was 31.4%.

Question: What about the “Residual and Distributed Fractions of Active Ingredient: Throat” value [1, 7] of the same compound?
Answer: The value was 24.2%.

Question: What about the “Residual and Distributed Fractions of Active Ingredient: Capsule” value [1, 8] of the same compound?
Answer: Its value is 5.8%.

Question: And the “Residual and Distributed Fractions of Active Ingredient: Inhaler device” value [1, 8]?
Answer: Its value is 25.1%.

Question: What about the “Residual and Distributed Fractions of Active Ingredient: Stage 0” value [1, 8] of the same compound?
Answer: Its value is 18.2%.

Question: What about the “Residual and Distributed Fractions of Active Ingredient: Stage 1” value [1, 8] of the same compound?
Answer: The value was 5.8%.

Question: And the “Residual and Distributed Fractions of Active Ingredient: Stages 2–7” value [1, 8]?
Answer: The value was 17.9%.

Question: What about the “Residual and Distributed Fractions of Active Ingredient: Throat” value [1, 8] of the same compound?
Answer: The value was 27.2%.

Question: And the “Capsule, residual active ingredient” value [1, 9]?
Answer: Its value is 3.0%.

Question: What about the “Inhaler device, residual active ingredient” value [1, 9] of the same compound?
Answer: Its value is 18.2%.

Question: What about the “Stage 0, distribution of active ingredient” value (from here on “Stage 0, distribution”) [1, 9] of the same compound?
Answer: The value was 28.9%.

Question: What about the “Stage 1, distribution of active ingredient” value (“Stage 1, distribution” below) [1, 9] of the same compound?
Answer: The value was 3.5%.

Question: And the “Stages 2–7, lung delivery fraction” value [1, 9]?
Answer: The value was 24.4%.

Question: What about the “Throat, distribution of active ingredient” value (shortened to “Throat, distribution”) [1, 9] of the same compound?
Answer: The value was 22.0%.

Question: And the “Capsule, residual active ingredient” value [1, 10]?
Answer: Its value is 2.6%.

Question: And the “Inhaler device, residual active ingredient” value [1, 10]?
Answer: Its value is 14.6%.

Question: What about the “Stage 0, distribution” value [1, 10] of the same compound?
Answer: The value was 21.8%.

Question: What about the “Stage 1, distribution” value [1, 10] of the same compound?
Answer: Its value is 3.8%.

Question: What about the “Stages 2–7, lung delivery fraction” value [1, 10] of the same compound?
Answer: Its value is 40.4%.

Question: And the “Throat, distribution” value [1, 10]?
Answer: Its value is 16.9%.

Question: And the “Capsule, residual active ingredient” value [1, 11]?
Answer: The value was 2.5%.

Question: And the “Inhaler device, residual active ingredient” value [1, 11]?
Answer: The value was 2.9%.

Question: What about the “Stage 0, distribution” value [1, 11] of the same compound?
Answer: Its value is 66.4%.

Question: And the “Stage 1, distribution” value [1, 11]?
Answer: Its value is 15.2%.

Question: And the “Stages 2–7, lung delivery fraction” value [1, 11]?
Answer: Its value is 11.3%.

Question: What about the “Throat, distribution” value [1, 11] of the same compound?
Answer: The value was 1.7%.

Source: patent US7022311B1, “Powdery inhalational preparations and process for producing the same” (Kaken Pharmaceutical Co., Ltd., priority 1999, dated 2006)
